Key:
Type in all cases: physicochemical
Solidification test = experiment: Solidification test
Excerpt: A sample in the aluminum cup, taken out after keeping three days in the above hygroscopicity test, was macroscopically observed. Solidification was judged from the appearance of the sample whether it was solidified or not by adsorbing moisture.

Hygroscopicity test = conditions: 25° C., RH 75.2%
Protocol: (§1) An open aluminum cup containing a sample was placed in a desiccator, set at a RH of 75.2% (equilibrated with a saturated sodium chloride aqueous solution), kept at 25° C. for three days, and then weighted. Hygroscopicity was expressed with percentage (%) of the increased weight to the initial weight of the sample.

[1] = Crystallinity by powdery X-ray diffraction (method of Ruland)
Protocol: Crystallinity of powder was measured by the method of Ruland (Acta Crystallographica, Vol. 14, p. 1180, 1961) based on a powdery X-ray diffraction pattern using “[…]”, an X-ray diffractometer (Cu, Kα-ray) commercialized by Rigaku Corp., Tokyo, Japan.

[2] = Preservation stability of the powder
Protocol: as §1, with “sample. A sample in the aluminum cup, taken out after keeping three days in the above hygroscopicity test, was macroscopically observed. Solidification was judged from the appearance of the sample whether it was solidified or not by adsorbing moisture.” for “sample.”

Row | solidification (in words) (Solidification test) | hygroscopicity (in words) (Hygroscopicity test) | Crystallinity (%) [1] [%] | preservation stability (in words) [2] | Compound
1 | no substantial solidification | no hygroscopicity | 82.6 |  | OCC1OC(OC2C(CO)OC(O)C(O)C2O)C(O)C(O)C1O (stereo not drawn) [No. 9, hydrous crystalline β-maltose, reference compound]
2 | heavy solidification | high hygroscopicity | 76.3 | unsatisfactory preservation stability | OC[C@H]1O[C@H](O[C@H]2[C@H](O)[C@@H](O)[C@H](O)O[C@@H]2CO)[C@H](O)[C@@H](O)[C@@H]1O [No. 10, anhydrous crystalline α-maltose]

— patent publication US7183265B2, “Powdery product comprising crystalline β-maltose monohydrate, its preparation, and uses” (priority 2001, dated 2007)
